Patent US4898876A, “Benzoylpiperazine esters and a process for their production” (Kowa Co., Ltd., priority 1982, dated 1990)
Where a name gives a salt, the structure may show the parent alone.

Target: chymotrypsin (Bos taurus, UniProt P00766)
Experiment: Chymotrypsin inhibitive activity (method of Muramatsu et al., acetyl-L-tyrosine ethyl ester substrate, Hestrin Method)
Type: biochemical
Settings: pH 8.0 tris-hydrochloric acid buffer, 10 minutes preincubation, 30° C., 30 minutes, absorbance at 530 nm, read-out: Chymotrypsin inhibitive activity [50% inhibition concentration (M)]
Method: A solution prepared by mixing 0.1 ml of a dimethylsulfoxide solution containing a compound to be tested, 0.1 ml of water and 0.1 ml of a buffer solution containing 10 ug/ml of chymotrypsin (0.1M tris-hydrochloric acid buffer solution, pH 8.0) was incubated for 10 minutes by the method of Muramatsu et al. [see The Journal of Biochemistry, 62, 408 (1967)]. 0.2 ml of a buffer solution containing 25 mM of an acetyl-L-tyrosine ethyl ester was mixed with the above-prepared solution and reacted at 30° C. for 30 minutes. The amount of the remaining substrate was determined by causing the same to develop color by the Hestrin Method and measuring the absorbance at 530 nm. For comparative purposes, use was made of tosylphenylalanine chloromethyl ketone which was known as a chymotrypsin inhibitor (Comparative Compound I).

IC50 | SMILES
1e-06 M | CC(C)N1CCN(C(=O)c2ccc(OC(=O)CC3c4ccccc4-c4ccccc43)cc2)CC1 [Example 40]
8e-07 M | CC(C)N1CCN(C(=O)c2ccc(OC(=O)C3CCCc4ccccc43)cc2)CC1 (stereo not shown) [Example 67]
9e-06 M | CC(C)N1CCN(C(=O)c2ccc(OC(=O)C3C=CCc4cc(Cl)ccc43)cc2)CC1 (stereo not shown) [Example 21]
3e-06 M | CC(C)N1CCN(C(=O)c2ccc(OC(=O)Cc3cccc4c3CCCC4)cc2)CC1 [Example 1, 1-Isopropyl-4-[4-(5,6,7,8-tetraphydronaphthalene-1-acetyloxy)benzoyl]piperazine.hydrochloride]
8e-07 M | CC(C)N1CCN(C(=O)c2ccc(OC(=O)C3CCCc4cc(Cl)ccc43)cc2)CC1 (stereo not shown) [Example 17]
7e-06 M | CC(C)N1CCN(C(=O)c2ccc(OC(=O)CCc3ccc4ccccc4c3)cc2)CC1 [Example 32]
5e-07 M | CC(C)N1CCN(C(=O)c2ccc(OC(=O)Cc3cccc4ccccc34)cc2)CC1 [Example 24]
8e-07 M | CC1CCC(C(=O)Oc2ccc(C(=O)N3CCN(C(C)C)CC3)cc2)c2ccccc21 (stereo not shown) [Example 15]
1e-07 M | CC(C)N1CCN(C(=O)c2ccc(OC(=O)C=C3c4ccccc4-c4ccccc43)cc2)CC1 [Example 2, 1-Isopropyl-4-[4-(9-fluorenylideneacetyloxy)benzoyl]piperazine]
9e-07 M | CC(C)N1CCN(C(=O)c2ccc(OC(=O)Cc3cc4ccccc4s3)cc2)CC1 [Example 3]
6e-07 M | Cc1ccc2c(c1)CCCC2C(=O)Oc1ccc(C(=O)N2CCN(C(C)C)CC2)cc1 (stereo not shown) [Example 18]
5e-06 M | CC(C)N1CCN(C(=O)c2ccc(OC(=O)C3=Cc4ccccc4CC3)cc2)CC1 [Example 20]
9e-07 M | CCN1CCN(C(=O)c2ccc(OC(=O)C3CCCc4ccccc43)cc2)CC1 (stereo not shown) [Example 68]
3e-06 M | CC(C)N1CCN(C(=O)c2ccc(OC(=O)CC3=CCCc4ccccc43)cc2)CC1 [Example 22]
9e-07 M | O=C(Oc1ccc(C(=O)N2CCN(C3CCCCC3)CC2)cc1)C1CCCc2ccccc21 (stereo not shown) [Example 66]
9e-06 M | CC(C)N1CCN(C(=O)c2ccc(OC(=O)COc3ccc4ccccc4c3)cc2)CC1 [Example 30]
8e-07 M | COc1ccc2c(c1)C(C(=O)Oc1ccc(C(=O)N3CCN(C)CC3)cc1)CCC2 (stereo not shown) [Example 65, 1-Methyl-4-[4-(7-methoxyl-1,2,3,4-tetrahydro-1-naphtoyloxy)benzoyl]piperazine.methanesulfonate]
1e-06 M | COc1ccc2c(c1)C(CC(=O)Oc1ccc(C(=O)N3CCN(C(C)C)CC3)cc1)=CC2 [Example 9]
5e-06 M | CC(C)N1CCN(C(=O)c2ccc(OC(=O)C3CCc4ccccc43)cc2)CC1 (stereo not shown) [Example 4]
